Read-outs that look alike come from different tables or passages of the source.
Experiments:
[1] = incorporation of D—Ala—D—Lac by VRE; cited from earlier work
[2] = test system: enterococcus; conditions: cited from earlier work
[3] = Hydrolysis of D—Ala—D—Lac depsipeptide derivative 5 in aqueous phosphate buffer, followed by HPLC; assay type: biochemical; conditions: substrate 5 0.5 mM, phosphate buffer pH 7.0, 37° C.; for effect on the rate of hydrolysis over buffer: peptides 12 mM
Protocol: The ability of peptide 4a in cleaving the substrate 5 was assessed in aqueous phosphate buffer pH=7 at 37° C. Stock solutions of 16 mM of 5 and 130 mM of peptide were made in water. Phosphate buffer solution of 25 mM was made by adjusting the pH of a K2HPO4 solution to 7.0 by addition of concentrated HCl. To a 1.5 mL glass vial (Waters) were added 5 μL stock solution of 5 and 15 μL stock solution of peptide, followed by 135 μL buffer. The volume was adjusted to 160 μL by addition of water. Vials were kept in an incubator at 37° C. and 2 μL aliquots were taken every 3 h. Each aliquot was diluted with water to 5 μL and 2 μL were injected in HPLC. Separation of components was carried out on a reverse phase column C18 (Waters) using a gradient water/acetonitrile (0.1% TFA).
Using HPLC and monitoring the p-NO2-phenyl derivative by UV at 275 nm, we could easily follow the disappearance of D—Ala—D—Lac derivative 5 and the formation of the hydrolyzed product 4. Under these conditions, we observed a 20% cleavage of the depsipeptide in 24 hrs. […] This proves that the whole structural assembly is necessary for the reaction to occur and that the reaction is not an artifact resulted by a change in the pH of the media due to the presence of the amine functionality.
N-acylated prolinol derivatives (FIG. 5) are the simplest structures that could fulfill such requirements. Their primary alcohol functionality forms an internal H-bond with the amide, the structures allow for the addition of the […] (NH2) through various linkers and moreover, are chiral molecules. The derivatives were tested for their ability to cleave 5 in aqueous phosphate buffer pH=7.0 at 37° C. (FIG. 6). […] One explanation for the higher activity of the very simple molecule SProC5 compared to 4a is the enhanced nucleophilicity of its hydroxyl (H position in H^1 NMR 7.59 ppm vs 6.62 ppm). Activity declines in the series with the decrease of the chain length from 5 carbons to 1 carbon. […] To confirm these speculations we compared the chemical shifts of the OH and NH in the H^1 NMR spectra of the NHBoc protected SProCn series (Table 1).
Substrate 5 was used at 0.5 mM, while prolinol derivatives were run at 12 mM. The graph is the average of three separate assays (FIG. 6).
The ability of peptide 4a in cleaving the substrate 5 was assessed in aqueous phosphate buffer pH 7 at 37° C. Using HPLC and monitoring the p-NO2-phenyl derivative by UV at 275 nm, we could easily follow the disappearance of D—Ala—D—Lac derivative 5 and the formation of the hydrolyzed product 4. […] A 20% hydrolysis of D—Ala—D—Lac in the presence of 4a was observed after 24 h.
The prolinol derivatives were additionally, tested for their ability to cleave 5 in aqueous phosphate buffer pH 7.0 at 37° C. […]

[4] = Combinatorial library screening on beads against red dye-labeled substrate 1; conditions: substrate 1 in 12DCE or DMF, 3-5 days
Protocol: Substrate 1 is treated with combinatorial libraries of potential nucleophiles on solid phase synthesis beads (2), and then those library members are selected that covalently linked the dye to a bead (3). This could be possible assuming that noncovalently bound material would be washed away with a polar solvent (Scheme 2). [drawing 4]
The assay for screening these libraries against 1 involves shaking a desired amount of library beads with the solution of labeled substrate for a period of time. To the library beads were added 200 μL solution of substrate 1 in 12DCE (or DMF), and the mixture was rotated for 3-5 days in a small glass vial. DMF was added and shaking continued for 1 h. Solvent was removed and the washing was repeated several times. One wash was performed with one drop of benzylamine added to DMF to remove any remaining physically bound substrate. The strongly red beads were picked individually in 1.5 μL DMF (in 25 μL capillaries) and photolysed for 6 h under a short wave UV lamp. Decoding was achieved by injecting the content of each capillary in EC-GC and comparing the chromatogram to a standard (20,21).
After the reaction occurred, the label-carrying beads were selected and analyzed (20,21). The initial assays were performed in 1,2-dichloroethane (12DCE) at a concentration of 2.3 mM in substrate 1.
The assay for screening these libraries against 1 involved shaking a desired amount of library beads with the solution of labeled substrate for a period of time. After the reaction occured, the label-carrying beads were selected and analyzed. The initial assays were performed in 1,2-dichloroethane (12DCE) at a concentration of 2.3 mM in substrate 1. After 3 days of shaking, the beads were extensively washed with dimethylformamide (DMF) and once with a diluted solution of benzylamine in DMF to remove any physically bound substrate (FIGS. 9A and 9B).

| Compound | effect on the rate of hydrolysis over buffer [3] | activity in bead screening (red beads / active sequence) [4] | also measured |
| --- | --- | --- | --- |
| CN[C@H](CC(C)C)C(=O)N[C@H]1C(=O)N[C@@H](CC(N)=O)C(=O)N[C@H]2C(=O)N[C@H]3C(=O)N[C@H](C(=O)N[C@H](C(=O)O)c4cc(O)cc(O)c4-c4cc3ccc4O)[C@H](O)c3ccc(c(Cl)c3)Oc3cc2cc(c3O[C@@H]2O[C@H](CO)[C@@H](O)[C@H](O)[C@H]2O[C@H]2C[C@](C)(N)[C@H](O)[C@H](C)O2)Oc2ccc(cc2Cl)[C@H]1O [vancomycin] | – | – | decrease of affinity of vancomycin for the peptidoglycan layer [1]: over 1000 fold; MIC of vancomycin ([2]; 10% of the peptidoglycan altered to D—Ala—D—Lac): 32 µg/mL; MIC of vancomycin ([2]; unaltered peptidoglycan): 2 µg/mL |
| BnNHD—Pro—L—Ser(OH)NHCONMe2 [compound 6] | No significant effect | – | – |
| BnNHL—LysNHAc [compound 8] | No significant effect | – | – |
| BnNHL—Lys—D—Pro—L—Ser(tBut)CONMe2 [compound 7] | No significant effect | – | – |
| BnNHL—Lys—D—Pro—L—SerCONMe2 [4a] | – | – | cleavage of the depsipeptide in 24 hrs ([3]; compound 12 mM, 24 h): 20% |
| D—Asn—L—Lys—L—Pro—L—SerNH2 | – | active sequence | – |
| D—Lys—L—Pro—D—Ser dimethylurea | – | never found as an active sequence | – |
| L—Lys—D—Pro—L—Ser dimethylurea | – | an active sequence found more frequently in the assays | – |

— patent publication US6734165B2, “Method for re-sensitizing vancomycin resistant bacteria which selectively cleave a cell wall depsipeptide” (The Trustees of Columbia University in the City of New York, priority 2001, dated 2004)
